{
  "source": "patent US20190022114A1",
  "about": "“METHODS AND COMPOSITIONS FOR REDUCING BODY WEIGHT AND INCREASING GUT MOTILITY” (priority 2016, published 2019)",
  "key": {"[1]": {"test_system": "LEPR (Leptin Receptor) mutants", "assay": "Weight loss and fat loss effect of D-ribose in mouse obesity model", "assay_type": "in vivo", "conditions": "48 days", "experimental": "Classic obesity model LEPR (Leptin Receptor) mutants (Age 42 day, male) and wild-type FVB strain mice were used in the testing.\nD-ribose was feed to mice in D-ribose water solution at concentrations indicated (75 mg/ml and 50 mg/ml). Control animals were feed with water. All animals were fed on normal diet. There was no restriction on the amount of liquid or food consumption.\nThe liquid and food consumption were measured at 4 day intervals. The actual D-ribose consumption for each animal was calculated based on its liquid intake volume.\nMouse body fat was measured using MiniSpec NMR Analyzer.\nP-values were calculated using t-test (unpaired, 2 tails) for data points after 48 days of treatment.\nTest results were shown in FIG. 1 and FIG. 2, wherein Square (▪) represents the treatment group, and Circle (●) represents control group. Classic obesity model LEPR (Leptin Receptor) mutants (Age 42 day, male) were used in the testing. The control group was fed with water. Animals were fed on normal diet."}, "C57BL/6 mice": {"test_system": "C57BL/6 mice", "assay": "Whole gut transit time (carmine gavage)", "assay_type": "in vivo, mouse", "conditions": "0.5 ml 75 mg/ml oral gavage, p value=0.004", "experimental": "D-ribose was administered to C57BL/6 mice of 8 weeks old. Before administering, mice were fasted for 18 hours with free access to water and housed on a mesh plate without bedding. The mice were orally fed with 0.5 ml carmine solution (6% carmine in 0.5% methylcellulose) containing either 75 mg/ml D-ribose or xylose. After oral force gavage, mice were returned to individually housed mesh bottom cages, which were placed on a white sheet. Whole gut transit time is the time taken from carmine meal gavage to the appearance of the first red fecal pellets."}, "Wistar rats": {"test_system": "Wistar rats", "conditions": "13 weeks, cited from earlier work"}},
  "data": [
    {"smiles": "O=C[C@H](O)[C@H](O)[C@H](O)CO", "note": "[D-ribose]", "values": [
      {"measurement": "fat gain (body fat measurement)", "setting": "[1]; 50 mg/ml in water, 20.59 gram/kg/day, data not shown", "value": "reduced fat gain but not statistically significant"},
      {"measurement": "weight gain vs control animals", "setting": "[1]; 50 mg/ml in water, 20.59 gram/kg/day, obese LEPR mutant male mice, p-value 0.001", "value": "statistically significantly decreased weight gain"},
      {"measurement": "body fat (NMR) vs control animals", "setting": "[1]; 75 mg/ml in water, 30.03 gram/kg/day, obese LEPR mutant male mice, p-value 0.00015", "value": "fat loss"},
      {"measurement": "body weight vs control animals", "setting": "[1]; 75 mg/ml in water, 30.03 gram/kg/day, obese LEPR mutant male mice, p-value 0.01", "value": "statistically significant weight loss"},
      {"measurement": "gut transition time vs xylose control", "setting": "C57BL/6 mice", "value": "shortened gut transition time"},
      {"measurement": "NOAEL, females", "setting": "Wistar rats; female rats, 5% in diet", "value": 4.4, "unit": "g/kg body weight/day"},
      {"measurement": "NOAEL, males", "setting": "Wistar rats; male rats, 5% in diet", "value": 3.6, "unit": "g/kg body weight/day"},
      {"measurement": "no observed adverse effect level (NOAEL), concentration in the diet", "setting": "Wistar rats; rats, in diet", "value": 5, "unit": "%"},
      {"measurement": "effect at up to 20% of diet", "setting": "Wistar rats; rats, up to 20% of diet (15.0 and 15.7 g/kg body weight/day males and females)", "value": "nutritional but not toxicological effect"}
    ]}
  ]
}
